# Test results published in patent US6372208B1, “Method of reducing an immune response to a recombinant virus” (The Trustees of the University of Pennsylvania, priority 1996, dated 2002).
# Entries after “also recorded” stand apart in the source; their conditions may differ.
# Key:
# [1] = system: recombinant adenoviruses H5.010CBALP and H5.010CMVlacZ; assay: Lung-directed adenovirus gene transfer and readministration, transgene expression by histochemistry (Example 2); format: in vivo, C57BL/6 mice
# Experimental: Female C57BL/6 mice (6˜8 week old) were infected with suspensions of H5.010CBALP (1×10^9 pfu in 50 μl of PBS) via the trachea at day 0 and similarly with H5.010CMVlacZ at day 28. One group of such mice was used as a control. Another group of mice were acutely depleted of CD4^+ cells by i.p. injection of antibody to CD4^+ cells (GK1.5; ATCC No. TIB207, 1:10 dilution of ascites) at the time of the initial gene therapy (days −3, 0, and +3). A third group of mice was injected with IL-12 (1 μg intratracheal or 2 μg, i.p. injections) at the time of the first administration of virus (days 0 and +1). A fourth group of mice was injected with gamma interferon. (1 μg intratracheal or 2 μg, i.p. injections) at the time of the first administration of virus (days 0 and +1).
# When mice were subsequently euthanized and necropsied at days 3, 28, or 31, lung tissues were prepared for cryosections, while bronchial alveolar lavage (BAL) and mediastinal lymph nodes (MLN) were harvested for immunological assays.
# The lung tissues were evaluated for ALP expression at day 3 and day 28 by histochemical staining following the procedures of Yang I, cited above. β-galactosidase expression was assayed at day 31 by X-gal histochemical staining. The results described below were obtained from the alkaline phosphatase histochemical stains (magnification ×100) or β-galactosidase X-gal stains (magnification ×100).
# [2] = system: L929 cells; assay: IFN-γ in the same lymphocyte culture supernatant measured on L929 cells; format: cell-based, C57BL/6 mice; details: MLN lymphocytes day 28, restimulated with virus
# Experimental: Lymphocytes from MLN of the control group and IL-12 treated group of C57BL/6 mice were harvested 28 days after administration of H5.010CBALP and restimulated in vitro with UV-inactivated H5.010CMVlacZ at 10 particles/cell for 24 hours. Cell-free supernatants were assayed for the presence of IL-2 or IL-4 on HT-2 cells (an IL-2 or IL-4-dependent cell line) [Yang I, cited above]. Presence of IFN-γ in the same lymphocyte culture supernatant was measured on L929 cells as described [Yang I, cited above]. Stimulation index (S.I.) was calculated by dividing ^3H-thymidine cpm incorporated into HT-2 cells cultured in supernatants of lymphocytes restimulated with virus by ^3H-thymidine cpm incorporated into HT-2 cells cultured in supernatants of lymphocytes incubated in antigen-free medium.
# [3] = system: human Ad5 recombinant vector; assay: Neutralizing antibody to adenovirus in BAL (Hela cell lacZ transduction); format: in vivo, C57BL/6 mice; details: day 28, versus control mice
# Experimental: BAL samples obtained from animals 28 days after primary exposure to recombinant virus were evaluated for neutralizing antibodies to adenovirus and anti-adenovirus antibody isotypes as follows. The same four groups of C57BL/6 mice, i.e., control, CD4^+ depleted, IL-12 treated and IFN-γ treated, were infected with H5.010BALP. Neutralizing antibody was measured in serially-diluted BAL samples (100 μl) which were mixed with H5.010CBlacZ (1×10^6 pfu in 20 μl), incubated for 1 hour at 37° C., and applied to 80% confluent Hela cells in 96 well plates (2×10^4 cells per well). After 60 minutes of incubation at 37° C., 100 μl of DMEM containing 20% FBS was added to each well. Cells were fixed and stained for β-galactosidase expression the following day.
# The results are shown graphically in FIGS. 1A through 1C, which summarize neutralizing antibody titer, and the relative amounts (OD405) of IgG and IgA present in BAL samples.
# [4] = system: recombinant adenoviruses H5.010CMVlacZ and H5.010CBALP; assay: Tail vein adenovirus gene transfer to mouse liver and readministration (Example 4); format: in vivo, C57BL/6 mice; details: liver, second virus day 28, read day 31
# Experimental: Recombinant virus (H5.010CMVLacZ or H5.010CBALP) was inactivated with ultraviolet light in the presence of 8-methoxypsoralen. Briefly, purified virus was resuspended in 0.33 mg/ml of 8-methoxypsoralen solution and exposed to a 365 nm UV light source on ice at 4 cm from the lamp filter for 30 min. The virus was then passed over a Sephadex G-50 column equilibrated with PBS. […] Suspensions of the viruses (2×10^9 pfu in 100 μl of PBS) were infused into the tail vein of 6 to 8 week old female mice as etailed in the following experiments. Each experiment was performed with a minimum of three mice in which transgene expression was quantified in a section of each of 5 lobes. The minimum analysis was 15 sections per experimental condition.
# e. C57BL/6 mice were inoculated i.p. with 0.5 ml aliquots of 1:10 dilution of mouse ascites fluid containing the GK1.5 (anti-CD4 Mab, ATCC TIB207) at days −3, 0 and +3 as described in Example 2. This was equivalent to 100 μg of purified monoclonal antibody per injection. These CD4^+ cell-depleted mice were infected with H5.010CMVlacZ at day 0 and H5.010CBALP at day 28 (“CD4Ab mice”); and
# f. […]
# Mice from each group were subsequently euthanized and liver tissues evaluated for lacZ expression by X-gal histochemistry (magnification ×100) at day 3 and day 28; and for ALP expression by histochemical staining at day 31 (magnification ×100). […]
# [5] = system: virus-infected C57SV cells; assay: CTL 51Cr release assay of restimulated splenocytes, IL-12 (Example 6B); format: cell-based, C57BL/6 mice; details: ALP virus, IL-12 i.p.; 51Cr release on virus-infected target cells
# Experimental: B. Splenocytes harvested from C57BL/6 mice (“B6”) and IL-12-treated C57BL/6 mice (“B6+IL12”) of Example 5 were restimulated in vitro 10 days after administration of H5.010CBALP with H5.010CMVlacZ for 5 days in DMEM supplemented with 5% FBS and […] 2-mercaptoethanol. These cells were tested for specific lysis on mock-infected (“mock”) and H5.010CBALP (“ALP”)-infected C57SV cells in a 6 hour ^51Cr release assay performed subsequently using the following ratios of effector to target cells (c57SV, H-2^b) in 200 μl DMEM with 10% FBS in V-bottom 96-well plates (E:T=50:1, 25:1, 12:1, 6:1, 5:1 and 3:1).
# Prior to mixing with the effector cells, target cells (1×10^6) were labeled with 100 μCi of ^51Cr after a 24 hr-infection with H5.010CMVlacZ at an moi of 50 and used at 5×10^3 cells/well. After incubation for 6 hr, aliquots of 100 μl supernatant were removed for counting in a gamma counter.
substance,measurement,setting,value
interleukin-12 [IL-12],transgene expression after first administration of virus (ALP),"[1]; lung, intratracheal, days 3 and 28",diminished after about one month
same,gene transfer upon second administration of virus (lacZ),"[1]; lung, readministered day 28, read day 31",high level gene transfer to airway epithelial cells was achieved
same,inflammation and transgene persistence following a second administration of virus,[1]; treatment at the time of intratracheal instillation of virus,did not enhance inflammation or diminish transgene persistence
same,[formula] (column head not readable; IFN-γ in supernatant),[2],160
same,reduction of neutralizing antibody in BAL,[3],20 fold
same,readministration of virus (gene transfer),[4],insufficient to allow efficient gene transfer upon readministration of virus
same,adenovirus-specific CTL activity,[5],did not increase adenovirus-specific CTL activity; also recorded: unaffected
